What was measured:
[1] = biological target: T1, His‐EBF2 (Homo sapiens, UniProt Q9HAK2); assay: Peptide pull-down with purified His-EBF2 fusion protein; assay type: binding; conditions: purified His-EBF2 expressed in E. coli; Figure 1C
T1 construct: His‐EBF2 plasmid was constructed by inserting the CDS of EBF2 into PET‐28a vector; His; made in house; host or cells: E. coli BL21 (DE3)
T1 sequence (Q9HAK2 1-575): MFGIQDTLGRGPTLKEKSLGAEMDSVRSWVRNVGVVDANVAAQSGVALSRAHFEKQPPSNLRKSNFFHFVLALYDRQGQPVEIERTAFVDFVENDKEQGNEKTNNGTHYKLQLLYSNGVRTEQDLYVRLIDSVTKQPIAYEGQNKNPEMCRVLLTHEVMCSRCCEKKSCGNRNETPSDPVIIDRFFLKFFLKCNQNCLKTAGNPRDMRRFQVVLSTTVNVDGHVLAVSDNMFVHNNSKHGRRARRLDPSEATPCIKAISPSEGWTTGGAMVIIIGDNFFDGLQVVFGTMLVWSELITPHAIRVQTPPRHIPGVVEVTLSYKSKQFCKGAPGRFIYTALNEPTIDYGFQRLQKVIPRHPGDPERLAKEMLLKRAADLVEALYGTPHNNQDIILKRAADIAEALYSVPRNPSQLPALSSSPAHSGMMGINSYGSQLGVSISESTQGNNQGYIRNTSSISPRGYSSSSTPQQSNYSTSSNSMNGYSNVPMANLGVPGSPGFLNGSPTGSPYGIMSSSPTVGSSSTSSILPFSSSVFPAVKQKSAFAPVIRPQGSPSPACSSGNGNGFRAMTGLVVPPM
Description: The CDS region of EBF2 gene was inserted into pET‐28a plasmid to express recombinant His‐tagged EBF2 fusion protein (His‐EBF2) in E. coli (Figure 1C).
His‐EBF2 plasmid was constructed by inserting the CDS of EBF2 into PET‐28a vector, transformed into E. coli BL21 (DE3), and cultured with isopropyl‐β‐D‐thiogalactoside (IPTG; Beyotime) at 16 °C for 12 h, until the optical density (OD600) reached 0.5–0.6. BL21 cells were collected and sonicated in cold PBS buffer, and His‐fusion proteins were purified with High Affinity Nickel beads (Genscript, Nanjing, China). The purity of His‐fusion proteins was evaluated by SDS‐PAGE.

[2] = tested on: EBF2; assay: Peptide pull-down with SW1990 and PANC-1 protein extracts; assay type: binding, Human; conditions: biotin-labeled peptides, protein extracts from SW1990 and PANC-1 cells; in vitro; Figure 1B
Description: Unmodified histone 3 (H3), H3K4me1 peptides were incubated with nuclear extract of SW1990 cells, separated by SDS‐PAGE gel, and subjected to mass spectrometry. Factors specifically associating with H3K4me1 were screened by peptide pulldown coupled with mass spectrometry analysis. Mass spectrometry‐based proteomic analysis yielded a plethora of putative H3K4me1‐associated proteins, including many known histone or DNA modifiers, readers, and chromatin remodelers (Table S1, Supporting Information). Given that KMT2D executes its antitumor function via catalyzing the formation of H3K4me1 in pancreatic cancer, we explored the genes associated with H3K4me1.
The product was separated by sodium dodecyl sulfate‐polyacrylamide gel electrophoresis (SDS‐PAGE) with silver staining. Protein bands of interest were excised and subjected to electrospray‐ion trap tandem mass spectrometry (LCQ‐Deca, Finnigan).

[3] = tested on: His‐EBF2 fusion protein; assay: Isothermal titration calorimetry (ITC); assay type: binding; conditions: Figure 1E
Description: His‐EBF2 plasmid was constructed by inserting the CDS of EBF2 into PET‐28a vector, transformed into E. coli BL21 (DE3), and cultured with isopropyl‐β‐D‐thiogalactoside (IPTG; Beyotime) at 16 °C for 12 h, […]. BL21 cells were collected and sonicated in cold PBS buffer, and His‐fusion proteins were purified with High Affinity Nickel beads (Genscript, Nanjing, China). The purity of His‐fusion proteins was evaluated by SDS‐PAGE.
A MicroCal ITC‐200 system (Malvern Instruments Ltd., UK) was used for ITC assay. Briefly, the synthesized peptides (Genscript) and proteins were all subjected to extensive dialysis against PBS. Peptides at a concentration of 1 mM were loaded into the ITC syringe, and proteins at a concentration of 100 µM into the ITC cell. Then, every 2 µL of peptide was automatically injected into the cell at 25 °C. The results of binding isotherms were analyzed using the Origin 7.0 software package (Origin Lab).

[4] = biological target: recombinant His-tagged EBF2 fusion protein (human) (UniProt Q9HAK2); assay: MST; NT-647-NHS-labelled EBF2 at 100 nM in PBS with 0.05% Tween-20, pH 7.4; peptides 10 nM to 500 uM; Monolith NT.115
[5] = tested on: H3K4me1; assay: Co-IP of Flag-tagged EBF2-WT or EBF2-H239A with H3K4me1 in SW1990 cells; assay type: binding, Human; conditions: Co-IP on SW1990 cells; Figure S1B
Description: Co‐immunoprecipitation assay was performed as described previously.^[ [61] ^] Briefly, SW1990 cells were transfected with indicated constructs or treated with GSK‐LSD1, washed with cold phosphate buffered saline (PBS), and lysed with cold cell lysis buffer. Then, the lysates were incubated with appropriate specific antibodies or normal rabbit IgG at 4 °C overnight in constant rotation, followed by the addition of protein A/G Sepharose beads and incubation for 2 h at 4 °C. The beads were then washed five times by the lysis buffer. Bead‐bound proteins were resolved by SDS‐PAGE and detected by immunoblotting using indicated antibodies.

CNCCCC[C@H](NC(=O)[C@@H](NC(=O)[C@H](CCCNC(=N)N)NC(=O)[C@H](C)N)[C@@H](C)O)C(=O)N[C@@H](CCC(N)=O)C(=O)N[C@H](C(=O)N[C@@H](C)C(=O)N[C@@H](CCCNC(=N)N)C(=O)N[C@@H](CCCCN)C(=O)N[C@@H](CO)C(=O)N[C@H](C(=O)NCC(=O)NCC(=O)N[C@@H](CCCCN)C(=O)N[C@@H](C)C(=O)N1CCC[C@H]1C(=O)N[C@@H](CCCNC(=N)N)C(=O)N[C@@H](CCCCN)C(=O)N[C@@H](CCC(N)=O)C(=O)O)[C@@H](C)O)[C@@H](C)O [H3K4me1]
pull-down of purified His-EBF2 by peptide [1]: pulled down by H3K4me1 peptide | preferential binding of EBF2 to peptide [2]: preferential binding of EBF2 to H3K4me1 over H3K4me3 | affinity of His-EBF2 to peptide, in words [3]: strong affinity

H3K4me1 peptide (C-terminal biotin-tagged 19 amino acid N-terminal peptide of histone H3, mono-methylated on Lys 4) (from UniProt P68431 2-20)
Kd [4]: 7.37 µM

B1: EBF2‐H239A: Flag-tagged EBF2-H239A; H239 is the site for H3K4me1 binding to EBF2 protein (protein)
chain: MFGIQDTLGRGPTLKEKSLGAEMDSVRSWVRNVGVVDANVAAQSGVALSRAHFEKQPPSNLRKSNFFHFVLALYDRQGQPVEIERTAFVDFVENDKEQGNEKTNNGTHYKLQLLYSNGVRTEQDLYVRLIDSVTKQPIAYEGQNKNPEMCRVLLTHEVMCSRCCEKKSCGNRNETPSDPVIIDRFFLKFFLKCNQNCLKTAGNPRDMRRFQVVLSTTVNVDGHVLAVSDNMFVHNNSKAGRRARRLDPSEATPCIKAISPSEGWTTGGAMVIIIGDNFFDGLQVVFGTMLVWSELITPHAIRVQTPPRHIPGVVEVTLSYKSKQFCKGAPGRFIYTALNEPTIDYGFQRLQKVIPRHPGDPERLAKEMLLKRAADLVEALYGTPHNNQDIILKRAADIAEALYSVPRNPSQLPALSSSPAHSGMMGINSYGSQLGVSISESTQGNNQGYIRNTSSISPRGYSSSSTPQQSNYSTSSNSMNGYSNVPMANLGVPGSPGFLNGSPTGSPYGIMSSSPTVGSSSTSSILPFSSSVFPAVKQKSAFAPVIRPQGSPSPACSSGNGNGFRAMTGLVVPPM
ability to bind H3K4me1 compared with EBF2-WT [5]: significantly weaker than that of EBF2‐WT
